Marks after values point to notes of the source that are not given here. Ends that are not written are not given here.
Columns and labels:
Assay type in all cases: in vivo, BALB/c mice
anti-SRBC antibody = experiment: Sheep Red Blood Cell (SRBC) hemolysis test, antibody formation; conditions: for anti-SRBC antibody formation, X ± SD (Unit): healthy mice, SRBC day 12 (IFN-γ, IL-2 3×10^5 IU/kg/day), saline 32 ± 7; for effect on the synthesis of anti-SRBC antibody upon the antigenic challenge (summary): statistically significant difference from saline in any of the dosage groups 0.5-500 μg/kg/day
Protocol: Sheep red blood cells (SRBC) were prepared by collecting blood from cervical vein and put into a sterile flask with glass beads. The flask was shaken for 3 minutes and the blood then mixed with Alsever solution (glucose 2.05 g, NaCl 0.4 g, […] 0.8 g, adjust to 100 ml with distilled water) and stored at 4° C. Immediately before use, samples were centrifuged at 130 g, 5 minutes to collect the SRBC. The cells were washed two times by re-suspension and centrifugation in normal saline. Then the cell pellet was collected by centrifugation at 180 g for 10 minutes and re-suspended in saline to make the final working SRBC suspension, 2% (v/v).
Complement was prepared by adding 10 volumes of fresh Cavy serum into one volume centrifuge packed SRBC, and then gently shaking for 30 minutes at 4° C. The SRBC was removed by centrifugation at 200 g for 10 minutes. 10 volumes of normal saline were added to obtain the working complement solution.
The test substances were administered as described in section 1.1, plus intraperitoneal injection 0.2 ml SRBC per mouse on day 12. On the day after the last test substance administration (day 16), blood was collected from the eye canthus and left at room temperature for one hour for serum exudation. After centrifugation at 200 g for 10 minutes, the serum was diluted by 500 times with normal saline.
To 1 ml diluted mouse serum of each mouse, 0.5 ml SRBC suspension was added. Ice cold. Then 1 ml working complement solution was added and incubated at 37° C. water bath for 10 minutes. Reactions were terminated by ice cold. Samples were then centrifuged at 200 g for 10 minutes to obtain the supernatant.
To 1 ml of this supernatant, 3 ml Drabkin solution was added and left at room temperature for 10 minutes. OD540 nm was obtained.
Reference OD540 nm was obtained by mixing 0.25 ml SRBC suspension with Drabkin solution to 4 ml and placed at room temperature for 10 minutes before OD540 nm was taken.
Sample serum index=(OD540 nm of test sample÷reference OD540 nm)×500

thymus gland = experiment: Immunity organ weight test, thymus gland index; conditions: for weight of thymus gland (thymus gland index), X ± SD (%): healthy mice, saline 0.12 ± 0.02; for effect on the weight of the thymus gland (summary): statistically significant difference from saline in any of the dosage groups 0.5-500 μg/kg/day
Protocol: (§1) One day after the last test substance administration (day 16), the liver, spleen, and thymus gland were separated and blotted dry with filter paper and weighed. The phagocytosis index α was calculated as below: α=(^3√{square root over ( )}K)(W÷WLS)
Thymus gland index (%)=(thymus weight/body weight)×100%

spleen = experiment: Immunity organ weight test, spleen index; conditions: for weight of spleen (spleen index), X ± SD (%): healthy mice, saline 0.53 ± 0.05; for effect on the weight of the spleen (summary): statistically significant difference from saline in any of the dosage groups 0.5-500 μg/kg/day
Protocol: as §1
Spleen index (%)=(spleen weight/body weight)×100%

mononuclear phagocyte = experiment: Carbon particle clearance test, phagocytosis function; set-up: key to X ± SD (phagocytotic index): α = cube root of K × (body weight ÷ liver+spleen weight)
Protocol: On the next day after the last test substance administration (day 16), the mice were injected with […] body weight India ink (5 times dilution with normal saline) from the tail vein.
One minute and five minutes after Indian ink injection, 20 μl blood was obtained from the eye canthus with a heparinized tubing. The blood was mixed with 2 ml 0.1% w/v Na2CO3 and then OD680 nm obtained. The outline clear index K was calculated by the following formula: K=(lgA1−lgA2)÷(t2−t1)
as §1

NK cell = NK cell cytotoxicity activity test (spleen cells of treated mice against YAC-1 target cells, MTT); conditions: for NK cell cytotoxic activity, X ± SD (%): healthy mice; for effect on the cytotoxic activity of NK cells (summary): statistically significant difference from saline in any of the dosage groups 0.5-500 μg/kg/day
Protocol: (§2) The above substances were all dissolved in 0.5 ml saline and injected intraperitoneal (i.p.) for 15 continuous days, once per day.
(§3) Ten mice per group. The day after the last test substance administration, the mice were sacrificed by cervical dislocation. The spleen was isolated aseptically and manually dispersed in cold D-Hank's solution using an injection needle. The dispersed cell suspension was further sieved through a 100 gauge 150 μm diameter stainless steel sieve. After centrifugation at 200 g for 10 minutes, the supernatant was discarded. The cell pellet was re-suspended in 10 volume of Tris-NH4Cl buffer and then kept standing still for 10 minutes at room temperature. The suspended cells were collected by centrifugation at 150 g for 10 minutes. The cells were washed 2-4 times with cold D-Hank's solution by re-suspending and collecting by centrifugation with condition as described above. The washed cells were then diluted to the desired cell densities by RPMI-1640 culture medium, containing 10% fetal bovine serum.
Mice spleen cells were prepared to 4×10^6/ml as described in section 1.1 above. Target cells YAC-1 were brought to log phase and adjusted to 1×10^5/ml. Using a 96 wells cell culture plate, […] were added to the control well containing only the spleen cells; […] and 100 μl culture medium were added to the control well containing only target cells; 100 μl mouse spleen cells and 100 μl target cells were added to the NK activity assay well. Three parallel sets of the above were prepared per mouse.
Samples were centrifuged at 150 g for 10 minutes to collect the cells. The supernatant was discarded and 50 μl/well MTT of 1 mg/ml was added. The reaction-mixture was then shaken for 2 minutes, and incubated at 37° C., 5% CO2 for 4 hours. The supernatant was discarded after centrifugation at 150 g for 10 minutes. […] 40 mM HCl-2-propanol was added and shaken for 3 minutes. An ELISA reader was used to obtain OD570 nm of each well referenced at 630 nm.

T lymphocyte = T lymphocyte transformation test (ConA-stimulated spleen cells of treated mice, MTT); conditions: for X ± SD (stimulation index): healthy mice, saline 1.3 ± 0.1; for effect on T lymphocyte transformation (summary): statistically significant difference from saline in any of the dosage groups 0.5-500 μg/kg/day
Protocol: as §2, §3
Spleen cells of density 1×10^6/ml were placed onto a 96 wells cell culture plate, 100 μL/well, three parallel wells each of the assay sample and control sample per mouse. To the assay wells, 100 μl/well ConA of 100 μg/ml in RPMI-1640 was added, and […] plain RPMI-1640 was used for the controls. The cells were incubated for 66 hrs at 37° C., 5% CO2. The cells were then pelleted by centrifugation at 150 g for 10 minutes.
50 μl/well MTT of 1 mg/ml in RPMI-1640 was added to the cell pellet and the cells re-suspended by shaking for 2 minutes. The incubation was continued for 4 hours. The supernatant was discarded after centrifugation at 150 g for 10 minutes. 120 μl 40 mM HCl-2-propanol was added to the cell pellet and shaken for 3 minutes. […]
Each mouse formed three assay wells and three control wells. The Stimulation Index (SI) of each mouse was obtained by first deriving the average OD of the three parallel wells, then dividing the value of the assay wells by the control wells.

[1] = peptide 0.5 μg/kg/day i.p. 15 days
[2] = peptide 5 μg/kg/day i.p. 15 days
[3] = peptide 50 μg/kg/day i.p. 15 days
[4] = peptide 50 μg/kg/day i.p. 15 days (IFN-γ, IL-2 3×10^5 IU/kg/day)
[5] = peptide 500 μg/kg/day i.p. 15 days (IFN-γ, IL-2 3×10^5 IU/kg/day)
[6] = peptide 500 μg/kg/day i.p. 15 days
[7] = peptide 500 μg/kg/day i.p. 15 days (IFN-γ, IL-2 3×10^5 IU/kg/day), saline 63 ± 9
[8] = peptide 5 μg/kg/day i.p. 15 days (IFN-γ, IL-2 3×10^5 IU/kg/day)
[9] = peptide 0.5 μg/kg/day i.p. 15 days (IFN-γ, IL-2 3×10^5 IU/kg/day)

Substance	anti-SRBC antibody formation, X ± SD (Unit) (anti-SRBC antibody; [1])	anti-SRBC antibody formation, X ± SD (Unit) (anti-SRBC antibody; [2])	anti-SRBC antibody formation, X ± SD (Unit) (anti-SRBC antibody; [3])	effect on the synthesis of anti-SRBC antibody upon the antigenic challenge (summary) (anti-SRBC antibody)	weight of thymus gland (thymus gland index), X ± SD (%) (thymus gland; [4])	weight of thymus gland (thymus gland index), X ± SD (%) (thymus gland; [5])	effect on the weight of the thymus gland (summary) (thymus gland)	weight of spleen (spleen index), X ± SD (%) (spleen; [6])	effect on the weight of the spleen (summary) (spleen)	NK cell cytotoxic activity, X ± SD (%) (NK cell; [7])	effect on the cytotoxic activity of NK cells (summary) (NK cell)	anti-SRBC antibody formation, X ± SD (Unit) (anti-SRBC antibody; [6])	weight of thymus gland (thymus gland index), X ± SD (%) (thymus gland; [8])	X ± SD (stimulation index) (T lymphocyte; [5])	effect on T lymphocyte transformation (summary) (T lymphocyte)	weight of thymus gland (thymus gland index), X ± SD (%) (thymus gland; [9])	also measured
Phe Glu Gln Asn Met (FEQNM; printed: Phe Glu Gln Asn Met) [CMS027]	99 ± 14*^@^ Unit	117 ± 45*^@^ Unit	93 ± 11*^@^ Unit	enhance	0.21 ± 0.03*^@^ %	0.20 ± 0.03*^ %	increase	0.37 ± 0.03	decrease	88 ± 8	increase						X ± SD (phagocytotic index) (mononuclear phagocyte; healthy mice, peptide 0.5 μg/kg/day i.p. 15 days (IFN-γ, IL-2 3×10^5 IU/kg/day), saline 5.1 ± 0.6): 6.4 ± 0.6; effect on the phagocytotic activity of mononuclear phagocyte (summary) (mononuclear phagocyte; statistically significant difference from saline in any of the dosage groups 0.5-500 μg/kg/day): enhance
Ala Ala Phe [CMS023]	108 ± 21*^@^ Unit	166 ± 27*^@^ Unit	84 ± 11*^@^ Unit	enhance	0.20 ± 0.02*^@^ %		increase	0.36 ± 0.06	decrease	79 ± 12	increase	110 ± 45*^@^ Unit	0.23 ± 0.06 %				
Phe Asn Glu Gln (FNEQ; printed: Phe Asn Glu Gln) [CMS029]	18 ± 7 Unit	147 ± 23*^@^ Unit	143 ± 13*^@^ Unit		0.18 ± 0.05 %	0.22 ± 0.04*^@^ %	increase		decrease	87 ± 4	increase	115 ± 22*^@^ Unit	0.21 ± 0.03 %	1.7 ± 0.3	enhance		weight of spleen (spleen index), X ± SD (%) (spleen; Table 28, peptide 5 μg/kg/day (so in the source) i.p. 15 days (IFN-γ, IL-2 3×10^5 IU/kg/day)): 0.42 ± 0.04 %
VVYPWTQRF [CMS002]	4 ± 1 Unit				0.21 ± 0.02*^@^ %		increase				increase	87 ± 18*^@ Unit	0.24 ± 0.05*^ %	1.8 ± 0.3	enhance	0.26 ± 0.06*^@^ %	X ± SD (stimulation index) (T lymphocyte; [4]): 2.6 ± 0.3*^@^; NK cell cytotoxic activity, X ± SD (%) (NK cell; peptide 0.5 μg/kg/day i.p. 15 days (IFN-γ, IL-2 3×10^5 IU/kg/day), saline 58 ± 7): 76 ± 9 %
Phe Gln Ser Phe (FQSF; printed: Phe Gln Ser Phe) [CMS033]	78 ± 12*^@ Unit	128 ± 39*^@^ Unit	112 ± 15*^@^ Unit	enhance	0.18 ± 0.03 %	0.25 ± 0.04*^@^ %	increase			89 ± 8	increase	143 ± 27*^@^ Unit	0.20 ± 0.02 %				
TTYNSIM [CMS026]	19 ± 6 Unit	191 ± 17*^@^ Unit	98 ± 9*^@^ Unit		0.27 ± 0.02*^@^ %	0.20 ± 0.03*^ %	increase			89 ± 7	increase		0.31 ± 0.05*^@^ %			0.21 ± 0.05 %	NK cell cytotoxic activity, X ± SD (%) (NK cell; peptide 50 μg/kg/day i.p. 15 days (IFN-γ, IL-2 3×10^5 IU/kg/day), saline 56 ± 8): 76 ± 9 %

From US20060167229A1, “Biologically active peptide conjugates” (priority 2002, published 2006)
